US9833497B2, “Human originated EGF domain proteins and use of the same” (CHENGDU SOURCEBIO LIMITED-LIABILITY COMPANY, priority 2013, dated 2017)

Tests used:
Type in all cases: cell-based
[1] = system: Proteus vulgaris; test: MIC against Gram-negative bacteria: Proteus vulgaris; details: 5×10^5 CFU/mL
Method in brief: (§1)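 Bacteria grown in LB at 37° C with shaking to McFarland 0.5, pelleted and resuspended in fresh LB, then seeded at 5×10^5 CFU/mL per well. Purified recombinant human EGF domain proteins were two-fold serially diluted in triplicate and plates shaken at 37° C, 175 rpm. MIC is the lowest protein concentration with no bacterial growth.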

[2] = system: Enterobacter cloacae; test: MIC against Gram-negative bacteria: Enterobacter cloacae; details: 5×10^5 CFU/mL
Method in brief: as §1

[3] = system: Aeromonas hydrophila; test: MIC against Gram-negative bacteria: Aeromonas hydrophila; details: 5×10^5 CFU/mL
Method in brief: as §1

[4] = system: Klebsiella pneumonia; test: MIC against Gram-negative bacteria: Klebsiella pneumonia; details: 5×10^5 CFU/mL
Method in brief: as §1

[5] = system: Moraxella catarrhalis; test: MIC against Gram-negative bacteria: Moraxella catarrhalis; details: 5×10^5 CFU/mL
Method in brief: as §1

[6] = system: E. coli DH5α; test: Antibacterial activity: MIC and growth curve against E. coli DH5α in 96-well plate; details: minimal inhibitory concentration against E. coli DH5α; 96-well plate, 5×10^5 CFU/mL, 37° C., judged after 8 h
Method in brief: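 Log-phase DH5α (OD600 about 0.5, 37° C, 185 rpm in LB) was pelleted, resuspended in fresh LB and seeded at 5×10^5 CFU/mL with recombinant protein at 50, 25 and 12.5 μg/mL (two-fold series), in triplicate. Plates were shaken at 175 rpm, 37° C, and OD600 was read every 30 min. MIC was the lowest concentration with no growth.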

[7] = system: Serratia marcescens; test: MIC against Gram-negative bacteria: Serratia marcescens; details: 5×10^5 CFU/mL
Method in brief: as §1

[8] = system: Citrobacter diversus; test: MIC against Gram-negative bacteria: Citrobacter diversus; details: 5×10^5 CFU/mL
Method in brief: as §1

[9] = system: Proteus mirabilis; test: MIC against Gram-negative bacteria: Proteus mirabilis; details: 5×10^5 CFU/mL
Method in brief: as §1

[10] = system: E. coli BL21; test: MIC against Gram-negative bacteria: E. coli BL21; details: 5×10^5 CFU/mL
Method in brief: as §1

[11] = system: Pseudomonas aeruginosa; test: MIC against Gram-negative bacteria: Pseudomonas aeruginosa; details: 5×10^5 CFU/mL
Method in brief: as §1

[12] = Proteus vulgaris, 10 h cultivation at 37° C.
[13] = Enterobacter cloacae, 10 h cultivation at 37° C.
[14] = Aeromonas hydrophila, 10 h cultivation at 37° C.
[15] = Klebsiella pneumonia, 10 h cultivation at 37° C.
[16] = Moraxella catarrhalis, 10 h cultivation at 37° C.
[17] = Serratia marcescens, 10 h cultivation at 37° C.
[18] = Citrobacter diversus, 10 h cultivation at 37° C.
[19] = Proteus mirabilis, 10 h cultivation at 37° C.
[20] = Pseudomonas aeruginosa, 10 h cultivation at 37° C.
[21] = P. vulgaris, 10 h cultivation at 37° C.
[22] = E. cloacae, 10 h cultivation at 37° C.
[23] = A. hydrophila, 10 h cultivation at 37° C.
[24] = K. pneumonia, 10 h cultivation at 37° C.
[25] = M. catarrhalis, 10 h cultivation at 37° C.
[26] = S. marcescens, 10 h cultivation at 37° C.
[27] = C. diversus, 10 h cultivation at 37° C.
[28] = P. mirabilis, 10 h cultivation at 37° C.
[29] = P. aeruginosa, 10 h cultivation at 37° C.
[30] = 10 h cultivation at 37° C., two-fold serial dilution

PRT1423 (PVDPCFRANCEYQCQPLNQTSYLCVCAEGFAPIPHEPHRCQ; listed as Homo sapiens)
25 µg/mL: MIC against C. diversus [8, 18]
50 µg/mL: MIC against P. vulgaris [1, 12] | MIC against M. catarrhalis [5, 16] | MIC [6]
12.5 µg/mL: MIC against E. cloacae [2, 13] | MIC against A. hydrophila [3, 14] | MIC against K. pneumonia [4, 15] | MIC against S. marcescens [7, 17] | MIC against P. mirabilis [9, 19] | MIC against E. coli BL21 ([10]; 10 h cultivation at 37° C.) | MIC against P. aeruginosa [11, 20]

PRT109 (ASQACRTNPCLHGGRCLEVEGHRLCHCPVGYTGAFCD; listed as Homo sapiens)
12.5 µg/mL: MIC (μg/mL) E. cloacae ([2]; Enterobacter cloacae, 96-well plate, 37° C., 10 h) | MIC (μg/mL) A. hydrophila ([3]; Aeromonas hydrophila, 96-well plate, 37° C., 10 h) | MIC (μg/mL) K. pneumonia ([4]; Klebsiella pneumonia, 96-well plate, 37° C., 10 h) | MIC [6] | MIC (μg/mL) C. diversus ([8]; Citrobacter diversus, 96-well plate, 37° C., 10 h) | MIC (μg/mL) P. mirabilis ([9]; Proteus mirabilis, 96-well plate, 37° C., 10 h) | MIC (μg/mL) E. coli BL21 ([10]; 96-well plate, 37° C., 10 h) | MIC (μg/mL) P. aeruginosa ([11]; Pseudomonas aeruginosa, 96-well plate, 37° C., 10 h)
25 µg/mL: MIC (μg/mL) P. vulgaris ([1]; Proteus vulgaris, 96-well plate, 37° C., 10 h) | MIC (μg/mL) M. catarrhalis ([5]; Moraxella catarrhalis, 96-well plate, 37° C., 10 h)
50 µg/mL: MIC (μg/mL) S. marcescens ([7]; Serratia marcescens, 96-well plate, 37° C., 10 h)

PRT205 (SAHVCSQQCSGHGVCDSRNKCHCSPGYKPPNCQ; listed as Homo sapiens)
25 µg/mL: MIC (μg/mL) P. vulgaris [1, 21] | MIC (μg/mL) A. hydrophila [3, 23] | MIC (μg/mL) K. pneumonia [4, 24] | MIC (μg/mL) M. catarrhalis [5, 25]
12.5 µg/mL: MIC (μg/mL) E. cloacae [2, 22] | MIC [6] | MIC (μg/mL) S. marcescens [7, 26] | MIC (μg/mL) C. diversus [8, 27] | MIC (μg/mL) P. mirabilis [9, 28] | MIC (μg/mL) E. coli BL21 ([10]; 10 h cultivation at 37° C.) | MIC (μg/mL) P. aeruginosa [11, 29]

PRT882 (SAKQCDSYPCKNNAVCKDGWNRFICDCTGTGYWGRTCE; listed as Homo sapiens)
50 µg/mL: MIC (μg/mL) S. marcescens [7, 26] | MIC (μg/mL) C. diversus [8, 27] | MIC (μg/mL) P. mirabilis [9, 28]
25 µg/mL: MIC (μg/mL) E. cloacae [2, 22] | MIC [6] | MIC (μg/mL) P. aeruginosa [11, 29]
12.5 µg/mL: MIC (μg/mL) P. vulgaris [1, 21] | MIC (μg/mL) K. pneumonia [4, 24] | MIC (μg/mL) M. catarrhalis [5, 25] | MIC (μg/mL) E. coli BL21 ([10]; 10 h cultivation at 37° C.)
100 µg/mL: MIC (μg/mL) A. hydrophila [3, 23]

PRT1447 (GCGAGRWGPGCTKECPGCLHGGVCHDHDGECVCPPGFTGTRCE; listed as Homo sapiens)
12.5 µg/mL: MIC against P. vulgaris [1, 12] | MIC against E. cloacae [2, 13] | MIC against K. pneumonia [4, 15] | MIC against C. diversus [8, 18] | MIC against P. aeruginosa [11, 20]
25 µg/mL: MIC against S. marcescens [7, 17] | MIC against P. mirabilis [9, 19] | MIC against E. coli BL21 ([10]; 10 h cultivation at 37° C.)
100 µg/mL: MIC [6]
50 µg/mL: MIC against A. hydrophila [3, 14] | MIC against M. catarrhalis [5, 16]

PRT1155 (QSVSCLNNLCLHQSLCIPDQSFSYSCLCTLGWVGRYCE; listed as Homo sapiens)
12.5 µg/mL: MIC E. cloacae [2, 30] | MIC K. pneumonia [4, 30] | MIC S. marcescens [7, 30] | MIC C. diversus [8, 30] | MIC E. coli BL21 [10, 30]
25 µg/mL: MIC P. vulgaris [1, 30] | MIC A. hydrophila [3, 30] | MIC M. catarrhalis [5, 30] | MIC [6] | MIC P. aeruginosa [11, 30]
50 µg/mL: MIC P. mirabilis [9, 30]

PRT825 (FGPNCTHVCGCGQGAACDPVTGTCLCPPGRAGVRCE; listed as Homo sapiens)
50 µg/mL: MIC (μg/mL) P. vulgaris [1, 21] | MIC (μg/mL) K. pneumonia [4, 24] | MIC (μg/mL) M. catarrhalis [5, 25]
25 µg/mL: MIC (μg/mL) E. cloacae [2, 22] | MIC [6] | MIC (μg/mL) S. marcescens [7, 26] | MIC (μg/mL) C. diversus [8, 27] | MIC (μg/mL) P. aeruginosa [11, 29]
12.5 µg/mL: MIC (μg/mL) A. hydrophila [3, 23] | MIC (μg/mL) P. mirabilis [9, 28] | MIC (μg/mL) E. coli BL21 ([10]; 10 h cultivation at 37° C.)
